Measurements reported in patent publication US5244897A, “Glycyl-p-amino-pyridine for the treatment of senile dementia states” (priority 1989, dated 1993).

Legend:
[1] = test system: electroconvulsive shock (ECS) induced amnesia; assay: electroconvulsive shock (ECS) induced amnesia (passive avoidance); type: in vivo, male mice; conditions: n=20; for minimal effective dose: Mus musculus, ip, read-out: Active dose (significantly prolonged the latency)
Procedure: Male mice (body weight 23-26 grams) were used.
Test apparatus and passive avoidance training (acquisition trial) were as described in the previous section.
Immediately after acquisition trial, amnesia was induced by electroconsulsive shock (ECS).
Test compounds were administered intraperitoneally soon afterwards the exposure to ECS.
The test trial was performed 24 h after the acquisition trial: the animals were put in the illuminated compartment an the latency time to enter the unlighted compartment was recorded
(§1) Anti-amnesic activity was calculated according to the following formula.
(§2) % of control = (the mean latency time of test compound treated mice/the
(§3) mean latency time of vehicle treated mice) × 100.

[2] = acute convulsant activity after oral administration (Litchfield and Wilcoxon); type: in vivo; conditions: Swiss male mice; for TD50: mouse, in vivo, read-out: CD50 (Convulsant Doses 50)
[3] = test system: acetylcholine release from the rat's cerebral cortex; assay: acetylcholine release in vivo, acute treatment; conditions: 5.6 mg/kg i.p., anesthetized rats, n=5
Procedure: Effect on acetylcholine release from the rat's cerebral cortex "in vivo"
In this study the Acetylcholine release from the cerebral cortex was investigated in anesthetized rats (n=5) at different times before and after i.p. administration of MR-3066 at a dose of 5.6 mg/kg.

[4] = test system: retention of passive avoidance response; assay: learning behavior in normal mice (passive avoidance response); type: in vivo, male mice; conditions: n=20
Procedure: Male mice (body weight ca 20 grams) were used. The test apparatus was a box with a dark compartment and an illuminated one.
The animal was placed in the illuminated compartment, foot-shock was given immediately after the mouse moved in the dark compartement (acquisition trial).
MR-3066 was intraperitoneally administered immediately after the acquisition trial.
The test trial was carried out 24 h following the acquisition trial and the latency time to enter the dark compartment was recorded.
Anti-amnesic activity was calculated according to the following formula:
of control = (the mean latency time of test compound treated mice/the mea
latency time of vehicle treated mice) 100.

[5] = acute toxicity after oral administration (Litchfield and Wilcoxon); type: in vivo; conditions: Swiss mice; for LD50: mouse, in vivo
[6] = toxicity after repeated oral administration, 30 days, preliminary study; type: in vivo, male and female Sprague Dawley rat; conditions: 6 mg/kg oral, 30 consecutive days, rat
Procedure: The toxicity of MR-3066 after repeated administration was evaluated in male and female Sprague Dawley rat after oral administration of the drug (6 mg/kg) for 30 consecutive days.

[7] = properties stated in the general summary; type: in vivo; conditions: general statement
[8] = mean blood pressure (reported with the transcallosal evoked potential study); type: in vivo, rats; conditions: for mean blood pressure: MR-3066 2 mg/kg i.v., physostigmine 0.1 mg/kg i.v.
Procedure: (§4) Electric stimulus was given to the callosum of urethane anesthetized rats, and transcallosal evoked potential from the opposite side cerebral cortex was measured.
(§5) The effects of the compounds on the transcallosal evoked potential were studied in rats.

[9] = test system: scopolamine-induced amnesia; assay: scopolamine-induced amnesia (passive avoidance); type: in vivo, mice; conditions: for minimal effective dose: Mus musculus, ip, read-out: Active dose (significantly prolonged the latency)
Procedure: Test apparatus, mice and passive avoidance training (acquisition trial) were as described in the previous sections (4.2-4.3). The compounds were intraperitoneally administered 30 min. before the acquisition trial.
Amnesia was induced by scolopolamine (1 mg/kg s.c.) given 20 min. prior to the acquisition trial; the test trial was performed after 24 hours.
The animals were put in the illuminated compartment and latency time to enter the dark compartment was recorded.
as §1, §2, §3

[10] = test system: transcallosal evoked potential from the opposite side cerebral cortex; assay: transcallosal evoked potential; type: in vivo, urethane anesthetized rats; conditions: 0.1 mg/kg i.v., rats
Procedure: as §4, §5

[11] = test system: spontaneous EEG (motor cortex, hippocampus, nucleus amygdalae); assay: spontaneous EEG; type: in vivo; conditions: 0.1 mg/kg i.v., rabbits
Excerpt: Electrodes were chronically implanted in the motor cortex, the hippocampus and the nucleus amygdalae of rabbits (n=4).
The effects of compounds on spontaneous EEG were studied in the animals.

[12] = ECS amnesia, 1 mg/kg i.p., MR-3066 ** P < 0.01 vs control
[13] = ECS amnesia, 2,5 mg/kg i.p., MR-3066 * P < 0.05, THA ** P < 0.01 vs control

Nc1c2c(nc3ccccc13)CCCC2 [THA]
Anti-amnesic activity (% of control) ([1]; ECS amnesia, 0,5 mg/kg i.p.): 72,2 % of control
Anti-amnesic activity (% of control) [1, 12]: 114,4 % of control
Anti-amnesic activity (% of control) [1, 13]: 184,5 % of control
Active dose (significantly prolonged the latency) ([1]; ECS amnesia): 2.5 mg/kg i.p.
minimal effective dose ([1]; ECS amnesia): 2.5 mg/kg

NCC(=O)Nc1ccncc1 [MR-3066, glycyl-p-amino-pyridine monoacetate]
Anti-amnesic activity (% of control) ([1]; ECS amnesia, 0,1 mg/kg i.p.): 148,2 % of control
Anti-amnesic activity (% of control) ([1]; ECS amnesia, 0,5 mg/kg i.p.): 121,6 % of control
Anti-amnesic activity (% of control) ([1]; ECS amnesia, 0,25 mg/kg i.p.): 147,8 % of control
Anti-amnesic activity (% of control) [1, 12]: 189,6 % of control
Anti-amnesic activity (% of control) ([1]; ECS amnesia, 5 mg/kg i.p.): 148 % of control
Anti-amnesic activity (% of control) [1, 13]: 165,5 % of control
convulsant activity versus 4-aminopyridine [2]: less convulsant than 4-aminopyridine
TD50 [2]: 19 mg/kg
time of peak of Ach release [3]: 45 '
Mean latency (% of control) ([4]; 1 mg/kg i.p.): 120.5 % of control
Mean latency (% of control) ([4]; 2.5 mg/kg i.p.): 118.8 % of control
Mean latency (% of control) ([4]; 5 mg/kg i.p., ** P < 0.01 vs control): 136.1 % of control
minimal effective dose ([4]; Mus musculus, ip, passive avoidance, normal mice, read-out: Active dose (significantly prolonged the latency)): 5 mg/kg
acute toxicity versus 4-aminopyridine [5]: toxicity lower than 4-aminopiridine
LD50 [5]: 29 mg/kg
toxic phenomena after repeated administration [6]: no toxic phenomenon except for a slight decrease in body weight, increase in the female accompanied by a reduction in food consumption
Parkinson-like effect [7]: without nevertheless showing Parkinson-like effect
mean blood pressure [8]: raised the mean blood pressure
minimal effective dose ([9]; scopolamine amnesia): 1 mg/kg
Anti-amnesic activity (% of control) ([9]; scopolamine amnesia, 0,5 mg/kg i.p.): 157,6 % of control
Anti-amnesic activity (% of control) ([9]; scopolamine amnesia, 1 mg/kg i.p., ** P < 0.01 vs controls): 188,1 % of control
Anti-amnesic activity (% of control) ([9]; scopolamine amnesia, 5 mg/kg i.p.): 159,5 % of control
Anti-amnesic activity (% of control) ([9]; scopolamine amnesia, 2,5 mg/kg i.p.): 145,2 % of control

Nc1ccncc1 [4-aminopyridine, reference compound]
TD50 [2]: 5 mg/kg
LD50 [5]: 12 mg/kg

CNC(=O)Oc1ccc2c(c1)[C@]1(C)CCN(C)[C@@H]1N2C [Physostigmine]
Anti-amnesic activity (% of control) ([1]; ECS amnesia, 0,05 mg/kg i.p., * P < 0.05): 165,6 % of control
Anti-amnesic activity (% of control) ([1]; ECS amnesia, 0,025 mg/kg i.p., * P < 0.05): 172,9 % of control
Anti-amnesic activity (% of control) ([1]; ECS amnesia, physostigmine 0,1 mg/kg i.p.): 148 % of control
minimal effective dose ([1]; ECS amnesia): 0.025 to 0.05 mg/kg
amplitude of negative wave of transcallosal evoked potential [10]: increased the amplitude of negative wave
onset of the EEG effects [11]: immediately after the administration
mean blood pressure [8]: raised the mean blood pressure
mean blood pressure effect versus MR-3066 ([8]; physostigmine 0.1 mg/kg i.v. vs MR-3066 2 mg/kg i.v.): much more marked than MR-3066
minimal effective dose ([9]; scopolamine amnesia): 0.1 mg/kg
Active dose (significantly prolonged the latency) ([9]; scopolamine amnesia): 0,1 mg/kg i.p.
Anti-amnesic activity (% of control) ([9]; scopolamine amnesia, 0,1 mg/kg i.p., * P < 0.05): 155,5 % of control
Anti-amnesic activity (% of control) ([9]; scopolamine amnesia, 0,05 mg/kg i.p.): 134,5 % of control
Anti-amnesic activity (% of control) ([9]; scopolamine amnesia, 0,025 mg/kg i.p.): 119,5 % of control
